What was measured:
[1] = Same daylight PDT trial, pain VAS and skin reactions 1 week after sessions; assay type: in vivo, human
Procedure: A double-blind randomized-controlled trial has been conducted to determine whether daylight PDT is an efficient method for treating photodamaged skin. […] Neither the investigator nor the patient knew which agent was administered, as it was applied by a trained professional nurse. To enhance product/placebo penetration a subtle abrasion with sandpaper of the whole face was performed. Also, a sunscreen (Cetaphil Dermacontrol SPF30®) was applied to the entire sun-exposed area including the treatment area in both groups during daylight-PDT, to avoid sunburn. […] Similarly, there were no statistical differences in the effects experimented by patients by patients one week after sessions, and in some of these variables no effect was found depending on each session (below table).

[2] = Pulse time investigation (Method B), PPIX formation in healthy volunteers; assay type: in vivo, human; details: PPIX formation after 3 hours; pulse times 20, 40, 60, 180 min
Procedure: (§1) The formation of PPIX after 3 hours is seen in FIG. 8, and the relation to inflammation is seen in FIG. 9. […] The results are illustrated in Column 3 in FIGS. 4, 5, 6, and 7. […] Pain level is not changed.
Twenty-four healthy male volunteers of Scandinavian ancestry were included in the study (mean age 30 years, range 20-51). A treatment area was selected on the inside of both forearms of the volunteer. Each treatment area was divided into four minor treatment fields of the size 2×5 cm with at least 3 cm between each field using a prefabricated flexible template. In order to imitate skin lesions all fields were tape stripped 10 times with occlusive dressing before treatment (Tegaderm™ Roll, 3M, Glostrup, Denmark). […]
All fields were covered with light-impermeable, occlusive dressing. […] During and after illumination pain was recorded. […]
5-MAL-induced PpIX fluorescence was depicted non-invasively using a fluorescence camera (Medeikonos AB, Gothenburg, Sweden). The amount of PpIX fluorescence was calculated from the photographs by the program MatLab® (MatLab®, MathWorks, Natic, US). The amount of fluorescence was measured before tape stripping and cream application (baseline) and before and after illumination.
The photo bleaching is then the difference in PpIX fluorescence (AU) calculated from the pre and post illumination images.

facial photodamage = assay: Double-blind randomized-controlled trial of daylight PDT, efficacy in facial photodamage; assay type: in vivo, human
Procedure: A double-blind randomized-controlled trial has been conducted to determine whether daylight PDT is an efficient method for treating photodamaged skin. […] Neither the investigator nor the patient knew which agent was administered, as it was applied by a trained professional nurse. To enhance product/placebo penetration a subtle abrasion with sandpaper of the whole face was performed. Also, a sunscreen (Cetaphil Dermacontrol SPF30®) was applied to the entire sun-exposed area including the treatment area in both groups during daylight-PDT, to avoid sunburn. Efficacy was evaluated after 1 month of the third (last) daylight session.

[3] = Pulse exposure 30 min (Method A), investigation of efficacy and inflammation; assay type: in vivo; details: 30 min pulse exposure vs conventional 3-hour exposure
Procedure: as §1

[4] = reaction 1 week after session 1
[5] = reaction 1 week after session 2
[6] = reaction 1 week after session 3
[7] = out of 30 subjects, 1 month after third daylight session
[8] = specific photodamage severity score, 1 month after third session

- Pain VAS score, mean ([1]; after session 1): 0.80
- Pain VAS score, median ([1]; after session 1): (0)
- Pain VAS score, mean ([1]; after session 2): 0.60
- Pain VAS score, median ([1]; after session 2): (0)
- Pain VAS score, mean ([1]; after session 3): 1.13
- Pain VAS score, median ([1]; after session 3): (0)
- Desquamation score 0, % of subjects [1, 4]: (53.3%)
- Desquamation score 1, % of subjects [1, 4]: (30%)
- Desquamation score 2, % of subjects [1, 4]: (16.7%)
- Desquamation score 3, % of subjects [1, 4]: (0%)
- Erythema score 0, % of subjects [1, 4]: (66.7%)
- Erythema score 1, % of subjects [1, 4]: (26.7%)
- Erythema score 2, % of subjects [1, 4]: (6.7%)
- Erythema score 3, % of subjects [1, 4]: (0%)
- Oedema score 0, % of subjects [1, 4]: (100%)
- Oedema score 1, % of subjects [1, 4]: (0%)
- Oedema score 2, % of subjects [1, 4]: (0%)
- Oedema score 3, % of subjects [1, 4]: (0%)
- Oozing score 0, % of subjects [1, 4]: (100%)
- Oozing score 1, % of subjects [1, 4]: (0%)
- Oozing score 2, % of subjects [1, 4]: (0%)
- Oozing score 3, % of subjects [1, 4]: (0%)
- Pigmentation score 0, % of subjects [1, 4]: (96.7) %
- Pigmentation score 1, % of subjects [1, 4]: (3.3%)
- Pigmentation score 2, % of subjects [1, 4]: (0%)
- Pigmentation score 3, % of subjects [1, 4]: (0%)
- Vesiculation score 0, % of subjects [1, 4]: (100%)
- Vesiculation score 1, % of subjects [1, 4]: (0%)
- Vesiculation score 2, % of subjects [1, 4]: (0%)
- Vesiculation score 3, % of subjects [1, 4]: (0%)
- Desquamation score 0, % of subjects [1, 5]: (50%)
- Desquamation score 1, % of subjects [1, 5]: (40%)
- Desquamation score 2, % of subjects [1, 5]: (10%)
- Desquamation score 3, % of subjects [1, 5]: (0%)
- Erythema score 0, % of subjects [1, 5]: (63.3%)
- Erythema score 1, % of subjects [1, 5]: (36.7%)
- Erythema score 2, % of subjects [1, 5]: (0%)
- Erythema score 3, % of subjects [1, 5]: (0%)
- Oedema score 0, % of subjects [1, 5]: (100%)
- Oedema score 1, % of subjects [1, 5]: (0%)
- Oedema score 2, % of subjects [1, 5]: (0%)
- Oedema score 3, % of subjects [1, 5]: (0%)
- Oozing score 0, % of subjects [1, 5]: (100%)
- Oozing score 1, % of subjects [1, 5]: (0%)
- Oozing score 2, % of subjects [1, 5]: (0%)
- Oozing score 3, % of subjects [1, 5]: (0%)
- Pigmentation score 0, % of subjects [1, 5]: (96.7%)
- Pigmentation score 1, % of subjects [1, 5]: (3.3%)
- Pigmentation score 2, % of subjects [1, 5]: (0%)
- Pigmentation score 3, % of subjects [1, 5]: (0%)
- Vesiculation score 0, % of subjects [1, 5]: (100%)
- Vesiculation score 1, % of subjects [1, 5]: (0%)
- Vesiculation score 2, % of subjects [1, 5]: (0%)
- Vesiculation score 3, % of subjects [1, 5]: (0%)
- Desquamation score 0, % of subjects [1, 6]: (50%)
- Desquamation score 1, % of subjects [1, 6]: (40%)
- Desquamation score 2, % of subjects [1, 6]: (10%)
- Desquamation score 3, % of subjects [1, 6]: (0%)
- Erythema score 0, % of subjects [1, 6]: (76.7%)
- Erythema score 1, % of subjects [1, 6]: (23.3%)
- Erythema score 2, % of subjects [1, 6]: (0%)
- Erythema score 3, % of subjects [1, 6]: (0%)
- Oedema score 0, % of subjects [1, 6]: (100%)
- Oedema score 1, % of subjects [1, 6]: (0%)
- Oedema score 2, % of subjects [1, 6]: (0%)
- Oedema score 3, % of subjects [1, 6]: (0%)
- Oozing score 0, % of subjects [1, 6]: (100%)
- Oozing score 1, % of subjects [1, 6]: (0%)
- Oozing score 2, % of subjects [1, 6]: (0%)
- Oozing score 3, % of subjects [1, 6]: (0%)
- Pigmentation score 0, % of subjects [1, 6]: (86.7%)
- Pigmentation score 1, % of subjects [1, 6]: (13.3%)
- Pigmentation score 2, % of subjects [1, 6]: (10%)
- Pigmentation score 3, % of subjects [1, 6]: (0%)
- Vesiculation score 0, % of subjects [1, 6]: (100%)
- Vesiculation score 1, % of subjects [1, 6]: (0%)
- Vesiculation score 2, % of subjects [1, 6]: (0%)
- Vesiculation score 3, % of subjects [1, 6]: (0%)
- Pain level [3]: not changed
- inflammation (erythema) [3]: clearly diminishes
Structure (SMILES): COC(=O)CCC(=O)CN [Metvix, methyl aminolevulinate]
- pulse exposure time at which PPIX concentration speeds up [2]: 20 to 40 min
- facial improvement, number of subjects (facial photodamage; [7]): 14
- facial success, number of subjects (facial photodamage; [7]): 11
- Coarse lines: failure, % of subjects (facial photodamage; [8]): (30%)
- Coarse lines: improvement, % of subjects (facial photodamage; [8]): (50%)
- Coarse lines: sucess, % of subjects (facial photodamage; [8]): (20%)
- Erythema: failure, % of subjects (facial photodamage; [8]): (20%)
- Erythema: improvement, % of subjects (facial photodamage; [8]): (53.3%)
- Erythema: sucess, % of subjects (facial photodamage; [8]): (26.7%)
- Fine lines: failure, % of subjects (facial photodamage; [8]): (20%)
- Fine lines: improvement, % of subjects (facial photodamage; [8]): (43.3%)
- Fine lines: sucess, % of subjects (facial photodamage; [8]): (36.7%)
- Mottled pigmentation: failure, % of subjects (facial photodamage; [8]): (23.3%)
- Mottled pigmentation: improvement, % of subjects (facial photodamage; [8]): (60%)
- Mottled pigmentation: sucess, % of subjects (facial photodamage; [8]): (16.7%)
- Sallowness: failure, % of subjects (facial photodamage; [8]): (16.7%)
- Sallowness: improvement, % of subjects (facial photodamage; [8]): (30%)
- Sallowness: sucess, % of subjects (facial photodamage; [8]): (53.3%)
- Tactile roughness: failure, % of subjects (facial photodamage; [8]): (16.7%)
- Tactile roughness: improvement, % of subjects (facial photodamage; [8]): (20%)
- Tactile roughness: sucess, % of subjects (facial photodamage; [8]): (63.3%)
